# Columns and labels:
# [1] = molecular target: T1, Muscarinic acetylcholine receptor M1 (Homo sapiens) (UniProt P11229); assay: Displacement of [3H]pirenzepine from human muscarinic M1 receptor expressed in CHO cells at 1 uM; format: cell-based
# T1 sequence (whole entry): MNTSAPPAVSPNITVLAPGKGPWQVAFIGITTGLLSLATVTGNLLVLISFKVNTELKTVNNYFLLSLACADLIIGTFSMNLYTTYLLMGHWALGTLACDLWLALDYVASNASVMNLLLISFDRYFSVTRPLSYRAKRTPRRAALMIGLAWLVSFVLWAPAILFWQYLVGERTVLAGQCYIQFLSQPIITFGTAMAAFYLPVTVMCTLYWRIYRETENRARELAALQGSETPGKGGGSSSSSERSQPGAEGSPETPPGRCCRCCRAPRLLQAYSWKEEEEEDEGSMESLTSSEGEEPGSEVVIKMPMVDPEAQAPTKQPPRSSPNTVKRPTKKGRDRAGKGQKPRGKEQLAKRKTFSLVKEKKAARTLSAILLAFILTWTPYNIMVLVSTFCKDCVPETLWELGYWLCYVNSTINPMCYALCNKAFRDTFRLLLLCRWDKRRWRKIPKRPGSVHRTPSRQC
# [2] = molecular target: Alpha-2C adrenergic receptor (Homo sapiens, UniProt P18825); assay: biochemical
# [3] = tested on: Rattus norvegicus; assay: Anti-depressant-like activity in intraperitoneally dosed 3-months old Wistar rat by Porsolt's forced swim test; format: functional; settings: ip, read-out: MED
# [4] = Permeability across basolateral to apical side in human Caco2 cells at 1 x 10^-5 M; format: ADME, cell-based; settings: Caco-2, read-out: permeability
# [5] = molecular target: T2, Histamine H1 receptor (Homo sapiens, UniProt P35367); assay: biochemical; format: cell-based, HEK293
# [6] = molecular target: 5-hydroxytryptamine receptor 2C (Homo sapiens, UniProt P28335); assay: biochemical
# [7] = tested on: Rattus norvegicus; assay: Induction of reinforcement of lever pressing in intraperitoneally dosed Wistar rat in absence of sweet reward; format: organism-based; settings: in vivo, ip
# [8] = Half life in human liver microsomes at 1 x 10^-7 M; format: ADME
# [9] = molecular target: Voltage-gated inwardly rectifying potassium channel KCNH2 (Homo sapiens, UniProt Q12809)
# [10] = tested on: Rattus norvegicus; assay: Anxiolytic activity in intraperitoneally dosed >18-months old Wistar rat by open-field test; format: functional; settings: ip, read-out: MED
# [11] = molecular target: T3, D(2) dopamine receptor (Homo sapiens, UniProt P14416); assay: biochemical
# [12] = molecular target: T4, 5-hydroxytryptamine receptor 2A (Homo sapiens, UniProt P28223); assay: Displacement of [3H]ketanserin from human 5-HT2A receptor expressed in HEK-293 cells; format: cell-based, HEK293
# [13] = tested on: Rattus norvegicus; assay: Anxiolytic activity in intraperitoneally dosed 3-months old Wistar rat by Vogel's conflict drinking test; format: functional; settings: ip, read-out: MED
# [14] = molecular target: D(4) dopamine receptor (Homo sapiens) (UniProt P21917); assay: Displacement of [3H]methylspiperone from human dopamine D4 receptor expressed in CHO cells at 1 uM; format: cell-based
# [15] = molecular target: T5, 5-hydroxytryptamine receptor 7 (Homo sapiens, UniProt P34969); assay: Displacement of [3H]LSD from human 5-HT7 receptor expressed in CHO cells at 1 uM; format: cell-based
# [16] = molecular target: D(1A) dopamine receptor (Homo sapiens, UniProt P21728); assay: biochemical
# [17] = molecular target: T4, 5-hydroxytryptamine receptor 2A; settings: HEK293, 1 uM
# [18] = molecular target: T3, D(2) dopamine receptor; assay: biochemical; remark: listed apart in the source
# [19] = molecular target: Alpha-2C adrenergic receptor (Homo sapiens) (UniProt P18825); assay: Displacement of [3H]RX-821002 from human adrenergic alpha2C receptor expressed in CHO cells at 1 uM; format: cell-based
# [20] = molecular target: T2, Histamine H1 receptor; assay: Displacement of [3H]pyrilamine from human histamine H1 receptor expressed in HEK-293 cells at 1 uM; format: cell-based; settings: HEK293
# [21] = Metabolic stability in human liver microsomes assessed as compound remaining after 45 mins at 1 x 10^-7 M (reference value: 100%); format: ADME; settings: read-out: Stability
# [22] = Metabolic stability in human liver microsomes assessed as compound remaining after 60 mins at 1 x 10^-7 M (reference value: 100%); format: ADME; settings: read-out: Stability
# [23] = molecular target: T6, 5-hydroxytryptamine receptor 6 (Homo sapiens, UniProt P50406); assay: Antagonist activity against human recombinant 5-HT6 receptor expressed in CHOK1 cells assessed as reduction in serotonin-induced increase in intracellular Ca2+ levels by aequorin based radiometric and luminescence plate counting method; format: functional, cell-based; settings: CHO-K1
# [24] = molecular target: T7, D(3) dopamine receptor (Homo sapiens, UniProt P35462); assay: Displacement of [3H]methylspiperone from human dopamine D3 receptor expressed in CHO cells; format: cell-based
# [25] = molecular target: 5-hydroxytryptamine receptor 2C (Homo sapiens) (UniProt P28335); assay: Displacement of [3H]mesulergine from human 5-HT2C receptor expressed in HEK-293 cells at 1 uM; format: cell-based; settings: HEK293
# [26] = molecular target: T5, 5-hydroxytryptamine receptor 7; assay: biochemical
# [27] = molecular target: Alpha-1A adrenergic receptor (Homo sapiens) (UniProt P35348); settings: CHO, 1 uM
# [28] = molecular target: T7, D(3) dopamine receptor; settings: CHO, 1 uM
# [29] = molecular target: T6, 5-hydroxytryptamine receptor 6; assay: biochemical
# [30] = molecular target: 5-hydroxytryptamine receptor 1A (Homo sapiens, UniProt P08908); assay: biochemical
# [31] = molecular target: 5-hydroxytryptamine receptor 1A (Homo sapiens) (UniProt P08908); settings: HEK293, 1 uM
# [32] = molecular target: D(4) dopamine receptor (Homo sapiens, UniProt P21917); assay: Displacement of [3H]methylspiperone from human dopamine D4 receptor expressed in CHO cells; format: cell-based
# [33] = molecular target: T3, D(2) dopamine receptor; assay: Agonist activity at human recombinant dopmaine D2L receptor expressed in CHOK1 cells assessed as intracellular Ca2+ levels by aequorin based radiometric and luminescence plate counting method; format: functional, cell-based, CHO-K1
# [34] = tested on: Rattus norvegicus; assay: Anti-depressant-like activity in intraperitoneally dosed >18-months old Wistar rat by Porsolt's forced swim test; format: functional; settings: ip, read-out: MED
# [35] = Protein binding in human plasma 1 x 10^-5 M; format: ADME, cell-free; settings: read-out: PPB
# [36] = Aqueous solubility in PBS buffer at pH 7.4 at 2 x 10^-4 M; format: physicochemical
# [37] = molecular target: T8, Sodium-dependent serotonin transporter (Homo sapiens, UniProt P31645); assay: Displacement of [3H]imipramine from human SERT expressed in CHO cells at 1 uM; format: cell-based
# [38] = molecular target: T7, D(3) dopamine receptor; assay: Agonist activity at human recombinant dopmaine D3 receptor expressed in CHOK1 cells assessed as effect on cAMP levels; format: functional, cell-based, CHO-K1
# [39] = tested on: Rattus norvegicus; assay: Procognitive effect in intraperitoneally dosed 3-months old Wistar rat assessed as extinction of non-reinforced responding for sweet reward; format: functional; settings: ip, read-out: MED
# [40] = molecular target: Muscarinic acetylcholine receptor M1 (Homo sapiens, UniProt P11229); assay: biochemical; format: cell-based, CHO
# [41] = Aqueous solubility in simulated gastric fluid at 2 x 10^-4 M; format: physicochemical
# [42] = Intrinsic clearance in human liver microsomes at 1 x 10^-7 M; format: ADME; settings: read-out: CLH
# [43] = Metabolic stability in human liver microsomes assessed as compound remaining after 30 mins at 1 x 10^-7 M (reference value: 100%); format: ADME; settings: read-out: Stability
# [44] = molecular target: T8, Sodium-dependent serotonin transporter; assay: biochemical
# [45] = tested on: Rattus norvegicus; assay: Anti-depressant-like activity in intraperitoneally dosed 3-months old Wistar rat assessed as increase in saccharin self-administration; format: functional; settings: ip, read-out: MED
# [46] = tested on: Rattus norvegicus; assay: Anxiolytic activity in intraperitoneally dosed 3-months old Wistar rat by open-field test; format: functional; settings: ip, read-out: MED
# [47] = Metabolic stability in human liver microsomes assessed as compound remaining after 15 mins at 1 x 10^-7 M (reference value: 100%); format: ADME; settings: read-out: Stability
# [48] = Permeability across apical to basolateral side in human Caco2 cells at 1 x 10^-5 M; format: ADME, cell-based; settings: Caco-2, read-out: permeability
# [49] = Aqueous solubility in simulated intestinal fluid at 2 x 10^-4 M; format: physicochemical
# [50] = molecular target: Alpha-1A adrenergic receptor (Homo sapiens, UniProt P35348); assay: biochemical
# T7 sequence (P35462 whole entry): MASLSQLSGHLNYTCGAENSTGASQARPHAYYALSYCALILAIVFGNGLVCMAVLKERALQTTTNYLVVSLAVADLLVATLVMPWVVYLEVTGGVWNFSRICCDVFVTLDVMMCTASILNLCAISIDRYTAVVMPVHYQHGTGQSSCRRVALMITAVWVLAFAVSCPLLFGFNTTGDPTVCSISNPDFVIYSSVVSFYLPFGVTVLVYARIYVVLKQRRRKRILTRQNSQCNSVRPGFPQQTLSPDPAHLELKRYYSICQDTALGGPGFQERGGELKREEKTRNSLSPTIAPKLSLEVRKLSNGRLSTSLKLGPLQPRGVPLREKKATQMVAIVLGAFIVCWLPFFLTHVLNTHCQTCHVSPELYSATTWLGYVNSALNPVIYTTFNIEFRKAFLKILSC
# T3 sequence (P14416 whole entry): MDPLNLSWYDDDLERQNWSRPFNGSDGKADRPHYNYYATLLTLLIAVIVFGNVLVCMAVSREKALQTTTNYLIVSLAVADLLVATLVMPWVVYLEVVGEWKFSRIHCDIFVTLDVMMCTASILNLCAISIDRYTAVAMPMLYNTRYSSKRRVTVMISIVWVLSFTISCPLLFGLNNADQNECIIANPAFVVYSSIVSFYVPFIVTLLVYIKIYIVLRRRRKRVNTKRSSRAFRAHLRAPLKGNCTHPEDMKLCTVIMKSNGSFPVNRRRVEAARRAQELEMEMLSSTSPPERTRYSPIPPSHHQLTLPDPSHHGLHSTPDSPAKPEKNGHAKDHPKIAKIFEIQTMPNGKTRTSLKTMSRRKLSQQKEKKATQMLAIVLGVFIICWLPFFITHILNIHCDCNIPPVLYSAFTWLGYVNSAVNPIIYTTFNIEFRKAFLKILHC
# T5 sequence (P34969 whole entry): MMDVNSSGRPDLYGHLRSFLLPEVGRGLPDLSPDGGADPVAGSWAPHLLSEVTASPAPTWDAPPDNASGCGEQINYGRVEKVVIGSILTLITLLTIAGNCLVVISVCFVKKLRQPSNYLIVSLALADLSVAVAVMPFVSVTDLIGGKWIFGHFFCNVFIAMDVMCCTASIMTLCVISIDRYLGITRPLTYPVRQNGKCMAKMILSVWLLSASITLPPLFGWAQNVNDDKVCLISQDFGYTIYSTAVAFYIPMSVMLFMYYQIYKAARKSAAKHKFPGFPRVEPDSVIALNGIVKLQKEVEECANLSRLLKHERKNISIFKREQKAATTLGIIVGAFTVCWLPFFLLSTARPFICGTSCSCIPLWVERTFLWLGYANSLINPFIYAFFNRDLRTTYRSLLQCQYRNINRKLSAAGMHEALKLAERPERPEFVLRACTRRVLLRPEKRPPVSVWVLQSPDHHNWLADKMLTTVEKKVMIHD
# T6 sequence (P50406 whole entry): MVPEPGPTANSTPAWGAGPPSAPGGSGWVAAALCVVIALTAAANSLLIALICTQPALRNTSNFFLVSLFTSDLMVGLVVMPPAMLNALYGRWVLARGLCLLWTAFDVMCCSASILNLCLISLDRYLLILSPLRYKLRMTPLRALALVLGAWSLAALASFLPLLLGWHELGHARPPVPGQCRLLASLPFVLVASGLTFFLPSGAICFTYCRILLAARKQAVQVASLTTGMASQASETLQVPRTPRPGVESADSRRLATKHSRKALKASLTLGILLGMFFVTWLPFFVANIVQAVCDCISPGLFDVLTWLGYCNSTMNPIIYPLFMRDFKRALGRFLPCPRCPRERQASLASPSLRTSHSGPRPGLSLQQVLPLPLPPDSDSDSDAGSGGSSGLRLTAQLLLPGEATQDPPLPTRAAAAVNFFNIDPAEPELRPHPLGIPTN
# T2 sequence (P35367 whole entry): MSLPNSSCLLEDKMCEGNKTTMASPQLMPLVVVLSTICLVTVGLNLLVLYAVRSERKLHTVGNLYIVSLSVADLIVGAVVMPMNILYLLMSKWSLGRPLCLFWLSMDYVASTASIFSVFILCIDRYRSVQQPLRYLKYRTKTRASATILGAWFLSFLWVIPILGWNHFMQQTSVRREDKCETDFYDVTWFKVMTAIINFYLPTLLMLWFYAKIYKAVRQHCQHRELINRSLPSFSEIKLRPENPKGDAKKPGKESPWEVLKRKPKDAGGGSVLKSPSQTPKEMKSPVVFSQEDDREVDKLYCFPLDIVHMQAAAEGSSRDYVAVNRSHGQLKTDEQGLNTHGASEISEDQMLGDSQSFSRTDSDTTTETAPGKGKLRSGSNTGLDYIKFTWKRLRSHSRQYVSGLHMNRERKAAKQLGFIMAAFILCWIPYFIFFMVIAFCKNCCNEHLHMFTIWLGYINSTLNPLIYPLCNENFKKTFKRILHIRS
# T4 sequence (P28223 whole entry): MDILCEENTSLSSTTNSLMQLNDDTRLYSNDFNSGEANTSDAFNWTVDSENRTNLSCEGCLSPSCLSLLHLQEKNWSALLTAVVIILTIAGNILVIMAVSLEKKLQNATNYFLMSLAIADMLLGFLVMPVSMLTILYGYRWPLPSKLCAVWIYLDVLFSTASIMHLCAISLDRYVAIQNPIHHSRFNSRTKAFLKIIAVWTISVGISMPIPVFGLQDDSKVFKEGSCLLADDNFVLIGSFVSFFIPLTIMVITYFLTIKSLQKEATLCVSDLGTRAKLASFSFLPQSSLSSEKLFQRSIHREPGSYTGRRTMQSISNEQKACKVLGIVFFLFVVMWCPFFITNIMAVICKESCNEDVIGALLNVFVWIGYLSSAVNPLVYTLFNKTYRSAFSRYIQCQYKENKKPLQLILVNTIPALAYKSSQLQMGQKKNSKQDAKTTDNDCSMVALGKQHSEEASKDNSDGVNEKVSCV
# Voltage-gated inwardly rectifying potassium channel KCNH2, sequence (Q12809 whole entry): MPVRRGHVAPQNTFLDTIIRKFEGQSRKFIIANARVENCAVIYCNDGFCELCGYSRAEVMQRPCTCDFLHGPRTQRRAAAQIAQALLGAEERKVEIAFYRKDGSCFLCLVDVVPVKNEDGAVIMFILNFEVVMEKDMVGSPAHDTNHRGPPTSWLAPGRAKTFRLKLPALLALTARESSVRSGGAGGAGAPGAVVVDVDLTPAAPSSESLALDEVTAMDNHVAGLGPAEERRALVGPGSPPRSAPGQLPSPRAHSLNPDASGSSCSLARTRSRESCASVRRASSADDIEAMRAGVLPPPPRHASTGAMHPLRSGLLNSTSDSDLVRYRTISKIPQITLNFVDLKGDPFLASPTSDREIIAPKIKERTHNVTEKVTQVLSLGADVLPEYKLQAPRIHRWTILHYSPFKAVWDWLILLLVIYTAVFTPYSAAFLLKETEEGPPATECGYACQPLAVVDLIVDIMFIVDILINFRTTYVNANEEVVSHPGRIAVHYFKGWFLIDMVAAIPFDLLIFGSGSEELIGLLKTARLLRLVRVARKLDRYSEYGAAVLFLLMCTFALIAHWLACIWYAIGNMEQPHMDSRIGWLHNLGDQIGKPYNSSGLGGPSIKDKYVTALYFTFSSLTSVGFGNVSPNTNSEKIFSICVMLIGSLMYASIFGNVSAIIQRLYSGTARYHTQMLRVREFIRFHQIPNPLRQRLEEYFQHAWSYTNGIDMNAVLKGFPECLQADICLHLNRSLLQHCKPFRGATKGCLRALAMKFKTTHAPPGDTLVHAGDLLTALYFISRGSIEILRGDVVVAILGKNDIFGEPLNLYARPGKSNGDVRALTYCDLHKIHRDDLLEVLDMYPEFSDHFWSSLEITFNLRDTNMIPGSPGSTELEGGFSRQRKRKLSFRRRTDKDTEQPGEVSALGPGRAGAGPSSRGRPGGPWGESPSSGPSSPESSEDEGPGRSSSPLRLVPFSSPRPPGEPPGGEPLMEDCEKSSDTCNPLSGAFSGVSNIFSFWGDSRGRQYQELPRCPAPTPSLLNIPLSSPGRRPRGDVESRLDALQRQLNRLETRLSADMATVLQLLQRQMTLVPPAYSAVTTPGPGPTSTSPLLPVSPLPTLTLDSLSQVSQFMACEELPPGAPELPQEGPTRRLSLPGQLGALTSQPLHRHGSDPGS
# 5-hydroxytryptamine receptor 2C, sequence (P28335 whole entry): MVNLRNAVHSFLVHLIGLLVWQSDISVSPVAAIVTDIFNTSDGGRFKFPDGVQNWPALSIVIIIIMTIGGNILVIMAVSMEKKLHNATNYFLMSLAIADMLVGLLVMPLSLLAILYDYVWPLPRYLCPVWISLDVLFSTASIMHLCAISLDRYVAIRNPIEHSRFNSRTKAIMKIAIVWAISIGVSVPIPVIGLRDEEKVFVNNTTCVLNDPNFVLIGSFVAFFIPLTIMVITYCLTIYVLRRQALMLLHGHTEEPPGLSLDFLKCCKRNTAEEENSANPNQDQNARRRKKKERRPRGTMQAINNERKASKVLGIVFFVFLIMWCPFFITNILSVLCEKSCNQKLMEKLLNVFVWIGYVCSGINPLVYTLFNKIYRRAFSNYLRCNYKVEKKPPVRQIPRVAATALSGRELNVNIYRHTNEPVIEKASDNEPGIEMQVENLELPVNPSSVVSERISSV
# 5-hydroxytryptamine receptor 2C (Homo sapiens), sequence (P28335 whole entry): as above
# D(4) dopamine receptor, sequence (P21917 whole entry): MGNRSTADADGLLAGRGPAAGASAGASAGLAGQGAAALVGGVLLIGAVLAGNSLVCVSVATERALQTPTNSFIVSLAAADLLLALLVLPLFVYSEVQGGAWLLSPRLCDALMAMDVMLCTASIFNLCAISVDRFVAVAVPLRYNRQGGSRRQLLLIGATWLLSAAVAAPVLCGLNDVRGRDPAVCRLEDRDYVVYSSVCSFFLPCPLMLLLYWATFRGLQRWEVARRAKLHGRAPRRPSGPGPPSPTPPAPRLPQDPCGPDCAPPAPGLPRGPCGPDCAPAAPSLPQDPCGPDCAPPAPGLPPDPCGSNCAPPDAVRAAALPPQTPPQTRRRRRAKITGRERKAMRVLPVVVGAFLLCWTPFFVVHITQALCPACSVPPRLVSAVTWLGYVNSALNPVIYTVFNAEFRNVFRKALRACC
# D(4) dopamine receptor (Homo sapiens), sequence (P21917 whole entry): as above
compound,measurement,setting,value
NC(=O)c1ccccc1OCCCN1CCN(c2cccc3c2ccn3S(=O)(=O)c2ccccc2)CC1,inhibition,[1],< 40%
same,Ki,[2],190 nM
same,minimal effective dose,[3],1 mg/kg
same,Papp B→A at 10 µM,[4],0.3 ×10⁻⁶ cm/s
same,Ki,[5],160 nM
same,Ki,[6],> 1000 nM
same,Activity,[7],Non-toxic
same,half-life at 0.1 µM,[8],> 1 h
same,IC50,[9],6200 nM
same,minimal effective dose,[10],3 mg/kg
same,Ki,[11],6.3 nM
same,Ki,[12],29 nM
same,minimal effective dose,[13],1 mg/kg
same,inhibition,[14],> 90%
same,inhibition,[15],> 50%
same,Ki,[16],> 1000 nM
same,inhibition,[17],> 90%
same,Ki,[18],6.3 nM
same,inhibition,[19],> 50%
same,inhibition,[20],> 50%
same,"remaining at 0.75 h, 0.1 µM",[21],68%
same,"remaining at 1 h, 0.1 µM",[22],57.9%
same,Kb,[23],1.8 nM
same,Ki,[24],0.1 nM
same,inhibition,[25],< 40%
same,Ki,[26],180 nM
same,inhibition,[27],> 50%
same,inhibition,[28],> 90%
same,Ki,[29],1 nM
same,Ki,[30],6.7 nM
same,inhibition,[31],> 90%
same,Ki,[32],7.1 nM
same,EC50,[33],54 nM
same,minimal effective dose,[34],1 mg/kg
same,fraction unbound at 10 µM,[35],< 0.01
same,solubility at 200 µM,[36],7 µM
same,inhibition,[37],< 40%
same,EC50,[38],> 1000 nM
same,minimal effective dose,[39],3 mg/kg
same,Ki,[40],> 1000 nM
same,solubility at 200 µM,[41],200 µM
same,microsomal CLint at 0.1 µM,[42],< 116 µL/min/mg
same,"remaining at 0.5 h, 0.1 µM",[43],79.3%
same,Ki,[44],> 1000 nM
same,minimal effective dose,[45],1 mg/kg
same,minimal effective dose,[46],1 mg/kg
same,"remaining at 0.25 h, 0.1 µM",[47],90.6%
same,Papp A→B at 10 µM,[48],0.7 ×10⁻⁶ cm/s
same,solubility at 200 µM,[49],97.3 µM
same,Ki,[50],16.9 nM
